{
  "source": "patent US20260272915A1",
  "about": "“PHARMACEUTICAL COMPOSITION FOR TREATING, PREVENTING, OR MANAGING BILIRUBIN-INDUCED NEUROLOGICAL DYSFUNCTION, PSYCHIATRIC DISORDERS ASSOCIATED WITH JAUNDICE, OR PSYCHIATRIC DISORDERS CAUSED BY BILIRUBIN UDP-GLUCURONOSYLTRANSFERASE GENE MUTATIONS” (priority 2023, published 2026)",
  "type_in_all_cases": "in vivo, rat",
  "key": {"[1]": {"system": "jaundice model rats (Gunn rats)", "assay": "Open field test", "conditions": "for Effect on number of grooming behaviors of Gunn rats (in words) / Effect on number of rearing behaviors of Gunn rats (in words) / Effect on spontaneous activity amount of Gunn rats (in words): compared with normal (Wistar) rats; for Spontaneous Activity Amount, Average / Number of Rearing Behaviors, Average / Number of Grooming Behaviors, Average: Gunn rats (j/j)", "method": "Eltoprazine (E1357, TCI), which is one of the 5-HT1A/1B receptor agonists, was dissolved in an arbitrary solvent. 0.3 mg/kg of eltoprazine was subcutaneously administered to jaundice model rats (Gunn rats) at 9 to 10 weeks of age. Further, as control groups, only a solvent was subcutaneously administered to Gunn rats and Wistar rats at 9 to 10 weeks of age. Further, as a comparison group, 8OH-DPAT (O415005, FUJIFILM Wako Pure Chemical Corporation), which is one of 5-HT1A receptor agonists, was dissolved in an arbitrary solvent, and 1 mg/kg thereof was subcutaneously administered to Gunn rats. After placing each rat in its home cage for 60 minutes, an open field test was conducted for 60 minutes using the Scanet MV-40 (Melquest Ltd.). The spontaneous activity amount and the number of rearing behaviors were measured for each rat by counting how many times the rat crossed the center evenly spaced. The number of grooming behaviors was counted by visual inspection.\nEltoprazine (E1357, TCI), which is one of the 5-HT1A/1B receptor agonists, was dissolved in an arbitrary solvent. 0.3 mg/kg of eltoprazine was subcutaneously administered to jaundice model rats (Gunn rats) at 9 to 10 weeks of age. Further, as control groups, only a solvent was subcutaneously administered to Gunn rats and Wistar rats at 9 to 10 weeks of age. Further, as a comparison group, CGS12066A (Sigma-Aldrich Co. LLC), which is one of 5-HT1B receptor agonists, was dissolved in an arbitrary solvent, and 1 mg/kg thereof was subcutaneously administered to Gunn rats. After placing each rat in its home cage for 60 minutes, an open field test was conducted for 60 minutes using the Scanet MV-40 (Melquest Ltd.). The spontaneous activity amount and the number of rearing behaviors for each rat were measured by counting how many times the rat crossed the center evenly spaced. The number of grooming behaviors was counted by visual inspection."}, "[2]": {"system": "Gunn rats", "assay": "Social interaction test", "conditions": "for Attacking Behavior, Average / Following Behavior, Average / Sniffing Behavior/Grooming Behavior, Average: Gunn rats (j/j), 1 h after administration, 10 min recording; for Sniffing Behavior/Grooming Behavior, Average: duration of sniffing or grooming the partner", "method": "Eltoprazine (E1357, TCI), which is one of 5-HT1A/1B receptor agonists, was dissolved in a physiological saline solution. Only a solvent, 0.3 mg/kg of eltoprazine, or 1 mg/kg of eltoprazine was administered subcutaneously to Gunn rats at 9 to 10 weeks of age. For control, only a solvent was administered to Wistar rats as normal rats. One hour after the administration, two rats of the same type (same drug, same dose, same genetic type) were placed together in a single cage, and their behaviors were video-recorded from above for 10 minutes. The recorded video was visually analyzed, and the number of behaviors of following the partner, the attacking behavior, and the duration of sniffing or grooming the partner were measured."}, "[3]": {"system": "Gunn rats", "assay": "Startle response prepulse inhibition (PPI) test", "conditions": "0.3 mg/kg subcutaneous, 80 dB prepulse", "method": "Eltoprazine (E1357, TCI), which is one of 5-HT1A/1B receptor agonists, was dissolved in a physiological saline solution. Only a solvent, 0.3 mg/kg of eltoprazine, or 1 mg/kg of eltoprazine was administered subcutaneously to Gunn rats at 9 to 10 weeks of age. For control, only a solvent was administered to Wistar rats as normal rats. One hour after the administration, a startle response prepulse inhibition (PPI) test was performed. The PPI test was conducted using the SR-LAB-Startle Response System (San Diego Institute, USA). Each rat subjected to the measurement was placed in a measurement chamber and acclimated with a 65 dB background white noise for 5 minutes before the start of stimulation. The startle response to a 120 dB auditory stimulation was measured using a piezoelectric sensor attached to the bottom of the chamber. The test session consisted of a total of 50 randomized trials, including no-stimulus (white noise only), 20 ms of 120 dB pulse stimulation, and stimulation with 20 ms of 70 dB or 80 dB prepulse 100 ms before the 120 dB pulse. The interval between the trials was 20 to 60 seconds (average: 40 seconds). The percentage PPI was calculated using the following formula: 100−[(startle response to prepulse-pulse stimulation trial−no-stimulation trial)/(pulse-alone trial−no-stimulation trial)×100]."}, "[4]": {"conditions": "0.3 mg/kg or 1 mg/kg subcutaneous, compared with normal rats"}},
  "data": [
    {"smiles": "CCCN(CCC)C1CCc2cccc(O)c2C1", "note": "(centres unmarked) [8OH-DPAT]", "values": [
      {"measurement": "Effect on number of grooming behaviors of Gunn rats (in words)", "setting": "[1]; 1 mg/kg subcutaneous", "value": "levels comparable to those of normal rats"},
      {"measurement": "Effect on number of rearing behaviors of Gunn rats (in words)", "setting": "[1]; 1 mg/kg subcutaneous", "value": "abnormal number of rearing behaviors"},
      {"measurement": "Effect on spontaneous activity amount of Gunn rats (in words)", "setting": "[1]; 1 mg/kg subcutaneous", "value": "levels comparable to those of normal rats"},
      {"measurement": "Spontaneous Activity Amount, Average", "setting": "[1]; Table 2, 1 mg/kg subcutaneous, 60 min home cage then 60 min open field", "value": 2681, "unit": "count"},
      {"measurement": "Number of Rearing Behaviors, Average", "setting": "[1]; Table 3, 1 mg/kg subcutaneous, 60 min open field", "value": 0.3, "unit": "times"},
      {"measurement": "Number of Grooming Behaviors, Average", "setting": "[1]; Table 4, 1 mg/kg subcutaneous, 60 min open field, visual inspection", "value": 5.5, "unit": "count"}
    ]},
    {"smiles": "CN1CCN(c2nc3cc(C(F)(F)F)ccc3n3cccc23)CC1", "note": "[CGS12066A]", "values": [
      {"measurement": "Effect on number of grooming behaviors of Gunn rats (in words)", "setting": "[1]; 1 mg/kg subcutaneous", "value": "did not improve"},
      {"measurement": "Effect on number of rearing behaviors of Gunn rats (in words)", "setting": "[1]; 1 mg/kg subcutaneous", "value": "levels comparable to those of normal rats"},
      {"measurement": "Effect on spontaneous activity amount of Gunn rats (in words)", "setting": "[1]; 1 mg/kg subcutaneous", "value": "levels comparable to those of normal rats"},
      {"measurement": "Spontaneous Activity Amount, Average", "setting": "[1]; Table 5, 1 mg/kg subcutaneous, 60 min open field", "value": 4030, "unit": "count"},
      {"measurement": "Number of Rearing Behaviors, Average", "setting": "[1]; Table 6, 1 mg/kg subcutaneous, 60 min open field", "value": 47, "unit": "count"},
      {"measurement": "Number of Grooming Behaviors, Average", "setting": "[1]; Table 7, 1 mg/kg subcutaneous, 60 min open field", "value": 19.6, "unit": "count"}
    ]},
    {"smiles": "c1cc2c(c(N3CCNCC3)c1)OCCO2", "note": "[eltoprazine, 5-(piperazin-1-yl)-2,3-dihydro-1,4-benzodioxine]", "values": [
      {"measurement": "Effect on attacking behavior of Gunn rats (in words)", "setting": "[2]; [4]", "value": "levels comparable to those of normal rats"},
      {"measurement": "Effect on duration of sniffing or grooming the partner in Gunn rats (in words)", "setting": "[2]; [4]", "value": "normal level"},
      {"measurement": "Effect on following behavior of Gunn rats (in words)", "setting": "[2]; [4]", "value": "levels comparable to those of normal rats"},
      {"measurement": "Attacking Behavior, Average", "setting": "[2]; 0.3 mg/kg subcutaneous", "value": 2, "unit": "count"},
      {"measurement": "Following Behavior, Average", "setting": "[2]; 0.3 mg/kg subcutaneous", "value": 2.16, "unit": "count"},
      {"measurement": "Attacking Behavior, Average", "setting": "[2]; 1 mg/kg subcutaneous", "value": 0.16, "unit": "count"},
      {"measurement": "Following Behavior, Average", "setting": "[2]; 1 mg/kg subcutaneous", "value": 3.83, "unit": "count"},
      {"measurement": "Sniffing Behavior/Grooming Behavior, Average", "setting": "[2]; 0.3 mg/kg subcutaneous", "value": 52, "unit": "count"},
      {"measurement": "Sniffing Behavior/Grooming Behavior, Average", "setting": "[2]; 1 mg/kg subcutaneous", "value": 41.5, "unit": "count"},
      {"measurement": "Effect on percentage PPI of Gunn rats (in words)", "setting": "[3]", "value": "tendency to improve"},
      {"measurement": "Percentage PPI, Average", "setting": "[3]; 120 dB pulse, Gunn rats (j/j), 1 h after administration", "value": 63.6, "unit": "%"},
      {"measurement": "Effect on number of grooming behaviors of Gunn rats (in words)", "setting": "[1]; 0.3 mg/kg subcutaneous", "value": "levels comparable to those of normal rats"},
      {"measurement": "Effect on number of rearing behaviors of Gunn rats (in words)", "setting": "[1]; 0.3 mg/kg subcutaneous", "value": "levels comparable to those of normal rats"},
      {"measurement": "Effect on spontaneous activity amount of Gunn rats (in words)", "setting": "[1]; 0.3 mg/kg subcutaneous", "value": "levels comparable to those of normal rats"},
      {"measurement": "Spontaneous Activity Amount, Average", "setting": "[1]; Table 2, 0.3 mg/kg subcutaneous, 60 min home cage then 60 min open field", "value": 4640, "unit": "count"},
      {"measurement": "Number of Rearing Behaviors, Average", "setting": "[1]; Table 3, 0.3 mg/kg subcutaneous, 60 min open field", "value": 61.5, "unit": "times"},
      {"measurement": "Number of Grooming Behaviors, Average", "setting": "[1]; Table 4, 0.3 mg/kg subcutaneous, 60 min open field, visual inspection", "value": 8.5, "unit": "count"},
      {"measurement": "Spontaneous Activity Amount, Average", "setting": "[1]; Table 5, 0.3 mg/kg subcutaneous, 60 min open field", "value": 4640, "unit": "count"},
      {"measurement": "Number of Rearing Behaviors, Average", "setting": "[1]; Table 6, 0.3 mg/kg subcutaneous, 60 min open field", "value": 61.5, "unit": "count"},
      {"measurement": "Number of Grooming Behaviors, Average", "setting": "[1]; Table 7, 0.3 mg/kg subcutaneous, 60 min open field", "value": 8.5, "unit": "count"}
    ]}
  ]
}
